Reference: patent US6362234B1, “Water-soluble prodrugs of propofol for treatment of migrane” (Vyrex Corporation, priority 2000, dated 2002)
Structures can show the parent of a compound that is named as a salt.

Legend:
[1] = male, Sprague-Dawley, rat, in vivo
Description: (§4) Propofol hemisuccinate sodium salt in aqueous solution was administered to adult male Sprague-Dawley rats by gavage. Blood was collected at 2, 4, 8 and 24 hours after dosing, and analyzed by HPLC as described in example 3.

[2] = In vivo hydrolysis of propofol hemisuccinate after gavage; settings: rats, two day observation period following the dosing
Description: as §4

[3] = tested on: low density lipoprotein (LDL); assay: Hydrogen peroxide/horseradish peroxidase-promoted oxidation of LDL (conjugated dienes); assay type: biochemical, human; settings: 5 μM compound; 100 μg/ml LDL, 1 U horseradish peroxidase, 50 μM H2O2
From the text: (§1) The following experiment is based on the use of low density lipoprotein (LDL) as an oxidizable substrate. LDL is one of the plasma lipoproteins whose oxidation is thought to contribute to the pathogenesis of atherosclerosis. The copper-promoted, the hydrogen peroxide-/horseradish peroxidase-promoted and the myeloperoxidase-promoted oxidation of LDL are models for the free radical-induced oxidation of LDL that occurs in vivo.
(§2) LDL was isolated from heparinized plasma of normal human donors by ultracentrifugation. Most of the experiments described in this study were performed immediately after isolation. Examples and further details of the experimental procedures may be found in N. Santanam et al J. Clin Invest. 95(6):2594 (1995) and FEBS Letters, 414:549-551 (1997).
(§3) The formation of conjugated dienes was measured in a spectrophotometer (model DB-3500; SLM-AMINCO, Urbana, Ill.) equipped with a 12 position sample changer. Samples and references were measured continuously for periods of up to several hours. Typically, 100 μg/ml of LDL was incubated in PBS with 1 U horseradish peroxidase (type X, 260 U/mg) in the presence of 50 μM H2O2. For copper-mediated oxidation, 100 μg/ml LDL was incubated with 5 μM copper sulfate solution.

[4] = tested on: low density lipoprotein (LDL); assay: Copper-promoted oxidation of LDL (conjugated dienes); assay type: biochemical, human; settings: 5 μM compound; 100 μg/ml LDL, 5 μM copper sulfate
From the text: as §1, §2, §3

Compound: CC(C)c1cccc(C(C)C)c1OC(=O)CCC(=O)O (as salt: succinate) [propofol hemisuccinate, 2,6-diisopropylphenyl hydrogen succinate]
- melting point: 101 to 102 °C

Compound: CC(C)c1cccc(C(C)C)c1OC(=O)CCC(=O)O [propofol hemisuccinate, 2,6-diisopropylphenyl hydrogen succinate]
- Time of peak blood levels of propofol after dosing [1]: 2 to 4 h
- Condition of the animals after dosing [2]: All the animals remained healthy and active

Compound: mono(propofol) phosphate disodium salt [(mono)propofol phosphate]
- Effect on oxidation of LDL in the presence of horseradish peroxidase/hydrogen peroxide [3]: not significantly affected
- Effect on copper-promoted oxidation of LDL [4]: not significantly affected
